Measured values reported in ChEMBL document CHEMBL3046147, “Synthesis and Herbicidal Activity of 1-Arylalkyl-3-pyrrolin-2-one Derivatives” (J Pestic Sci, 2000).
Activity calls are given as the source filed them. The rule behind the calls is not given here.

Assays:
[1] = system: Echinochloa oryzicola; assay: Herbicidal activity against Echinochloa oryzicola under greenhouse condition assessed as growth inhibition at 1000 g /ha measured after 27 days; format: functional, organism-based
[2] = system: Echinochloa oryzicola; assay: Herbicidal activity against Echinochloa oryzicola grown in water-drained pot under greenhouse condition assessed as growth inhibition at 1000 g /ha measured after 20 days; format: functional, organism-based
[3] = system: Echinochloa oryzicola; assay: Herbicidal activity against Echinochloa oryzicola under greenhouse condition assessed as growth inhibition at 1000 g /ha measured after 13 days; format: functional, organism-based
[4] = system: Echinochloa oryzicola; assay: Herbicidal activity against Echinochloa oryzicola under greenhouse condition assessed as growth inhibition at 250 g /ha measured after 27 days; format: functional, organism-based
[5] = system: Echinochloa oryzicola; assay: Herbicidal activity against Echinochloa oryzicola grown in water-drained pot under greenhouse condition assessed as growth inhibition at 250 g /ha measured after 33 days; format: functional, organism-based
[6] = system: Echinochloa oryzicola; assay: Herbicidal activity against Echinochloa oryzicola under greenhouse condition assessed as growth inhibition at 1000 g /ha measured after 6 days; format: functional, organism-based
[7] = system: Echinochloa oryzicola; assay: Herbicidal activity against Echinochloa oryzicola grown in water-drained pot under greenhouse condition assessed as growth inhibition at 250 g /ha measured after 42 days; format: functional, organism-based
[8] = system: Echinochloa oryzicola; assay: Herbicidal activity against Echinochloa oryzicola under greenhouse condition assessed as growth inhibition at 1000 g /ha measured after 42 days; format: functional, organism-based
[9] = system: Echinochloa oryzicola; assay: Herbicidal activity against Echinochloa oryzicola under greenhouse condition assessed as growth inhibition at 250 g /ha measured after 6 days; format: functional, organism-based
[10] = system: Echinochloa oryzicola; assay: Herbicidal activity against Echinochloa oryzicola grown in water-drained pot under greenhouse condition assessed as growth inhibition at 250 g /ha measured after 20 days; format: functional, organism-based
[11] = system: Echinochloa oryzicola; assay: Herbicidal activity against Echinochloa oryzicola grown in water-drained pot under greenhouse condition assessed as growth inhibition at 1000 g /ha measured after 6 days; format: functional, organism-based
[12] = system: Echinochloa oryzicola; assay: Herbicidal activity against Echinochloa oryzicola under greenhouse condition assessed as growth inhibition at 1000 g /ha measured after 33 days; format: functional, organism-based
[13] = system: Echinochloa oryzicola; assay: Herbicidal activity against Echinochloa oryzicola grown in water-drained pot under greenhouse condition assessed as growth inhibition at 1000 g /ha measured after 27 days; format: functional, organism-based
[14] = system: Echinochloa oryzicola; assay: Herbicidal activity against Echinochloa oryzicola grown in water-drained pot under greenhouse condition assessed as growth inhibition at 250 g /ha measured after 13 days; format: functional, organism-based
[15] = system: Echinochloa oryzicola; assay: Herbicidal activity against Echinochloa oryzicola under greenhouse condition assessed as growth inhibition at 250 g /ha measured after 42 days; format: functional, organism-based
[16] = system: Echinochloa oryzicola; assay: Herbicidal activity against Echinochloa oryzicola grown in water-drained pot under greenhouse condition assessed as growth inhibition at 1000 g /ha measured after 33 days; format: functional, organism-based
[17] = system: Echinochloa oryzicola; assay: Herbicidal activity against Echinochloa oryzicola grown in water-drained pot under greenhouse condition assessed as growth inhibition at 1000 g /ha measured after 42 days; format: functional, organism-based
[18] = system: Echinochloa oryzicola; assay: Herbicidal activity against Echinochloa oryzicola under greenhouse condition assessed as growth inhibition at 250 g /ha measured after 20 days; format: functional, organism-based
[19] = system: Echinochloa oryzicola; assay: Herbicidal activity against Echinochloa oryzicola under greenhouse condition assessed as growth inhibition at 250 g /ha measured after 13 days; format: functional, organism-based
[20] = system: Echinochloa oryzicola; assay: Herbicidal activity against Echinochloa oryzicola grown in water-drained pot under greenhouse condition assessed as growth inhibition at 250 g /ha measured after 6 days; format: functional, organism-based
[21] = system: Echinochloa oryzicola; assay: Herbicidal activity against Echinochloa oryzicola grown in water-drained pot under greenhouse condition assessed as time duration of residual effect at 1000 g /ha; format: functional
[22] = system: Echinochloa oryzicola; assay: Herbicidal activity against Echinochloa oryzicola under greenhouse condition assessed as growth inhibition at 1000 g /ha measured after 20 days; format: functional, organism-based
[23] = system: Echinochloa oryzicola; assay: Herbicidal activity against Echinochloa oryzicola grown in water-drained pot under greenhouse condition assessed as growth inhibition at 1000 g /ha measured after 13 days; format: functional, organism-based
[24] = system: Echinochloa oryzicola; assay: Herbicidal activity against Echinochloa oryzicola under greenhouse condition assessed as time duration of residual effect at 1000 g /ha; format: functional
[25] = system: Echinochloa oryzicola; assay: Herbicidal activity against Echinochloa oryzicola grown in water-drained pot under greenhouse condition assessed as time duration of residual effect at 250 g /ha; format: functional
[26] = system: Echinochloa oryzicola; assay: Herbicidal activity against Echinochloa oryzicola under greenhouse condition assessed as time duration of residual effect at 250 g /ha; format: functional
[27] = system: Echinochloa oryzicola; assay: Herbicidal activity against Echinochloa oryzicola under greenhouse condition assessed as growth inhibition at 250 g /ha measured after 33 days; format: functional, organism-based
[28] = system: Echinochloa oryzicola; assay: Herbicidal activity against Echinochloa oryzicola grown in water-drained pot under greenhouse condition assessed as growth inhibition at 250 g /ha measured after 27 days; format: functional, organism-based

CN(C(=O)COc1nc2ccccc2s1)c1ccccc1 [MEFENACET]
growth inhibition (GI) [1]: Active | growth inhibition (GI) [2]: Active | growth inhibition (GI) [3]: Active | growth inhibition (GI) [4]: inactive | growth inhibition (GI) [5]: inactive | growth inhibition (GI) [6]: Active | growth inhibition (GI) [7]: inactive | growth inhibition (GI) [8]: Active | growth inhibition (GI) [9]: Active | growth inhibition (GI) [10]: inactive | growth inhibition (GI) [11]: Active | growth inhibition (GI) [12]: Active | growth inhibition (GI) [13]: Active | growth inhibition (GI) [14]: Active | growth inhibition (GI) [15]: inactive | growth inhibition (GI) [16]: Active | growth inhibition (GI) [17]: Active | growth inhibition (GI) [18]: Active | growth inhibition (GI) [19]: Active | growth inhibition (GI) [20]: Active | Time [21]: 33 days | growth inhibition (GI) [22]: Active | growth inhibition (GI) [23]: Active | Time [24]: 33 days | Time [25]: 13 days | Time [26]: 13 days | growth inhibition (GI) [27]: inactive | growth inhibition (GI) [28]: inactive
